Reference: patent US9623226B2, “Device for efficient delivery of compounds to or through the skin or biological barriers, using light-absorbing thin films” (Universidade de Coimbra, priority 2011, dated 2017)

What was measured:
[1] = In vitro transdermal delivery through minipig skin samples, passive versus active (photoacoustic device); assay type: in vitro ADME; settings: extraction with dichloromethane and fluorescence, confirming fluorescence microscopy; high-impulse broadband pressure wave versus passive
Method: Skin sections were cut from the back of the minipigs after they had been sacrificed. These skin sections were frozen and kept at −18° C. until use in in vitro tests. Before each in vitro test, the required amount of minipig skin was slowly brought to room temperature. All the tests were carried out at room temperature.
(§1) The skin samples collected after the experiments were analyzed by microscopy to evaluate the penetration depth of the desired compounds, or followed an extraction procedure to evaluate their amounts under the skin. The evaluation of the penetration depth by fluorescence microscopy or by confocal microscopy requires tissue fixation. The first step in the fixation was immersion in paraformaldehyde (4% in aqueous solution) for at least 24 h. Next, the samples were transferred to a 25% sucrose solution for at least 48 h. […] The skin slices were collected in microscope slides and kept refrigerated until they were analyzed by fluorescence microscopy and confocal microscopy. […]
In order to evaluate the quantities of the F2TPPMet delivered under the skin a specific method was developed. […] Fluorescence calibration curves of the pharmacological excipient delivered in the skin were performed in the extractor solvent to validate the methodology used. Finally, the mass delivered onto the skin is determined for each essay substituting its fluorescence in the calibration curve. […]

skin of a minipig = test: In vivo transdermal delivery on the back of minipigs, passive and active (photoacoustic device); settings: device of Example 1, 12 laser shots at 355 nm, 10 mJ per pulse
From the text: In vivo and in vitro tests employed four minipigs obtained from IMIDHA (Instituto Madrileño de Investigación y Desarrollo Rural, Agrario y Alimentario)—Aranjuez (Madrid). They were all females, aged 6-8 months, white with brown spots, average weight 56.8 kg (66.2, 57.1, 43.5, 60.6 kg). They were received at Estação Zootécnica Nacional, Vale de Santarém, where they were accommodated in individual boxes with 1.5 m^2, feed with a standard diet for pigs and water ad libidum, for an acclimation period of three weeks. The study was performed in accordance to the Portuguese ethical guidelines on a license granted by Dircção de Serviços de Saúde o Protecção Animal, ref. 0420/000/000/2007. Access to food was suspended 24 h hours before treatment. The backs of the animals were shaved 24 h prior to the in vivo application of the dermatological formulations. […]
as §1, with “fixation.” for “fixation. The first step in the fixation was immersion in paraformaldehyde (4% in aqueous solution) for at least 24 h. Next, the samples were transferred to a 25% sucrose solution for at least 48 h.”

- state of the stratum corneum after active transdermal delivery (skin of a minipig; 20 minutes incubation): stratum corneum remained intact
- distribution in the skin by fluorescence microscopy after active transdermal delivery (skin of a minipig; ca 1 cm^2, 20 minutes incubation): distributed over all the epidermis
Substance: 5,10,15,20-tetrakis(2,6-fluoro-3-N-methylsulfamoylphenyl)porphyrin [F2TPPMet]
- quantity of F2TPPMet delivered to the skin, active versus passive transdermal delivery [1]: increase in the quantity of F2TPPMet delivered to the skin
